Measurements as given in US20150352040A1 (priority 2010, published 2015).
Where two headings read alike, the source gives them in different places.

Columns and labels:
[1] = in comparison to a 15 mg dose of hydrocodone
From the text: In certain preferred embodiments, the opioid agonist is hydrocodone.

[2] = milligram-for-milligram basis; cited from earlier work
[3] = TRNA therapy with topical apomorphine, onset of clinical effect; format: in vivo, human
human patients [4] = test system: human patients
patients [5] = experiment: Compounded topical morphine sulfate and tramadol, inventor's clinical experience (nuchal and peripheral application); details: patients tapering off oral narcotics, nuchal delivery as only pain therapy
Procedure: The dose for MS has been 2.5-5.0 mg and for tramadol, 40-80 mg, divided over two to three locations, as described herein.
With activation of opioid receptors potentially providing improved pain relief, MS and tramadol were compounded for topical administration.

human patients [6] = experiment: Efficacy of topical opioid analgesic formulations in human patients (Example 6); format: in vivo
From the text: The efficacy of topical opioid analgesic formulations was studied in human patients.

[7] = compounded morphine in cold cream applied locally to skin at areas of pain; cited from earlier work
[8] = cited from earlier work
patient = details: 1 mg twice daily
patients [9] = details: cited from earlier work
[10] = case 4, acute lumbar sprain, 1.0 mg application
[11] = Patient C, 40 mg topical divided between knee and lower back
[12] = Patient E, 40 mg topical to neck and back in divided dose
[13] = Patient F, 40 mg topical to nuchal region and lower back in divided doses
[14] = Patient H, 40 mg topical in 1 ml Lipoderm

## COc1ccc2c3c1O[C@H]1[C@@H](O)C=C[C@H]4[C@@H](C2)N(C)CC[C@@]341 [Codeine]
[1]
  Calculated Dose (mg), equianalgesic: 90.0 mg

## CC(=O)Oc1ccc2c3c1O[C@H]1[C@@H](OC(C)=O)C=C[C@H]4[C@@H](C2)N(C)CC[C@@]341 [Heroin, diacetylmorphine]
[2]
  potency relative to morphine: 1.5-2 times

## COc1ccc2c3c1O[C@H]1C(=O)CC[C@H]4[C@@H](C2)N(C)CC[C@]314 [Hydrocodone]
[1]
  Calculated Dose (mg), equianalgesic: 15.0 mg

## CN1CC[C@]23CCCC[C@H]2[C@H]1Cc1ccc(O)cc13 [Levorphanol]
[1]
  Calculated Dose (mg), equianalgesic: 1.8 mg

## CCC(=O)C(CC(C)N(C)C)(c1ccccc1)c1ccccc1 (stereo not drawn) [Methadone]
[1]
  Calculated Dose (mg), equianalgesic: 9.0 mg

## COc1ccc2c3c1O[C@H]1C(=O)CC[C@@]4(O)[C@@H](C2)N(C)CC[C@]314 [Oxycodone]
[1]
  Calculated Dose (mg), equianalgesic: 13.5 mg

## CN1CCc2cccc3c2[C@H]1Cc1ccc(O)c(O)c1-3 [apomorphine]
[3]
  onset of clinical effect: 10 to 15 min
Human patients [4]; Example 3, cream of Example 1 over nerve entrapment areas or affected muscle
  time to pain relief, all patients: 5 to 10 min
Human patients [4]; case 1, pregnant person, 0.5 mg at the wrist
  outcome, carpal tunnel syndrome: without recurrent symptoms
Human patients [4]; case 2, additional 0.5 mg after 24 hours
  pain relief: complete pain relief
Human patients [4]; case 2, tarsal tunnel syndrome/plantar fasciitis, runner, 0.5 mg application
  pain relief: 90%
Human patients [4]; case 3, hamstring injury, 0.5 mg
  outcome, pain: complete resolution of pain without recurrence
Human patients [4]; case 3, hamstring injury, 0.5 mg to muscle and insertion site
  time to resolution of pain: 5 to 10 min
Human patients [4]; case 4 (person one), acute lumbar sprain, 1.0 mg application
  pain and spasm relief: 80-90%
Human patients [4]; [10]
  duration of relief: lasted overnight
  time to pain and spasm relief: 10 to 15 min
Human patients [4]; case 5, 0.5 mg application and heating pad
  outcome, acute lumbar sprain from lifting: without recurrent symptoms
Human patients [4]; case 6, marathon runner, 0.5 mg to base of toe and 0.5 to tarsal tunnel
  outcome, foot pain from stress fractures and tarsal tunnel: experienced pain relief
Human patients [4]; single topical dose increased to 2 mg, peripheral application
  tolerability of increased single dose: without deleterious effects

## CN1CC[C@]23c4c5ccc(O)c4O[C@H]2[C@@H](O)C=C[C@H]3[C@H]1C5.O=S(=O)(O)O [morphine sulfate]
Patients [5]
  narcotic withdrawal symptoms: no significant narcotic withdrawal symptoms
Human patients [6]; Patient G, 3 mg topical in Pass-gel to the nuchal region, on oral oxycodone
  further reduction in pain from baseline: 20-30%
Human patients [6]; Patient I, topical 2.5 mg in 0.5 ml Pass-gel, despite regular narcotics
  reduction in baseline back and hip pain: 15-20%
Human patients [6]; Patient K, topical 2.5 mg to the nuchal region
  time to reduction in pain: 10 to 15 min
Human patients [6]; Patient K, topical 2.5 mg to the nuchal region, from "severe"
  headache and neck pain after treatment: 0-1 of 10
Human patients [6]; Patient L, topical 2.5 mg to the nuchal region
  time to reduction in pain: 8 to 10 min
Human patients [6]; Patient L, topical 2.5 mg to the nuchal region, from about 8 of 10
  pain after treatment: about 4 of 10

## CN1CC[C@]23c4c5ccc(O)c4O[C@H]2[C@@H](O)C=C[C@H]3[C@H]1C5 [morphine]
[7]
  morphine levels in blood or urine: not detected
Human patients [6]; Patient D, topical 2.5 mg in 0.5 ml Pass-gel, despite regular hydromorphone
  additional pain relief: 20-30%

## Clc1ccc2nsnc2c1NC1=NCCN1 [tizanidine]
[8]
  absorption after oral administration: completely absorbed
patient; after a few months of continued therapy
  state of spastic upper extremity: essentially back to normal
patient; within several weeks
  state of spastic upper extremity: visible improvement

## COc1cccc(C2(O)CCCCC2CN(C)C)c1 (stereo not drawn) [tramadol]
Patients [5]
  narcotic withdrawal symptoms: no significant narcotic withdrawal symptoms
Patients [9]; in most cases
  onset of withdrawal after the last dose: 12 to 20 h
Patients [9]; versus three or four days for other codeine analogues
  duration of acute withdrawal symptoms: seven days or more
Human patients [6]; Patient A, topical in Lipoderm, 40 mg tramadol hydrochloride dose twice daily, nuchal region and back
  pain relief: Pain relief is achieved
Human patients [6]; Patient B, 15 minutes after 20 mg topical to nuchal region and lower back, baseline about 7-8/10
  pain in the neck after treatment: about 0 /10
Human patients [6]; Patient B, 15 minutes after 20 mg topical to nuchal region and lower back, baseline about 7/10
  pain in the back and legs after treatment: about 2 /10
Human patients [6]; Patient B, tramadol (Ultram) tablets
  benefit of oral tablets in the past: without significant benefit
Human patients [6]; [11]
  eventual pain relief: 80-90%
  time to initial reduction in pain: ≤ 15 min
Human patients [6]; Patient C, right knee pain, 40 mg topical divided between knee (popliteal fossa) and lower back
  initial reduction in pain: ~50%
Human patients [6]; Patient D, 40 mg topical at the nuchal region
  outcome: with benefit
Human patients [6]; [12]
  reduction in pain: 70-80%
  time to reduction in pain: 10 to 15 min
Human patients [6]; [13]
  pain relief: ≥ 70%
  time to pain relief: ≤ 15 min
Human patients [6]; [14]
  duration of pain relief: ~48 h
  time to pain relief: ≤ 15 min
Human patients [6]; Patient H, 40 mg topical in 1 ml Lipoderm to neck and back in divided doses
  pain relief: greater than 80%
Human patients [6]; Patient J, topical 40 mg in 1 ml Lipoderm to the nuchal region
  outcome, pain (trigeminal neuralgia and cervical sprain): dramatic improvement in pain

## Meperidine
[1]
  Calculated Dose (mg), equianalgesic: 135.0 mg
